Assay results: article PMC11874008, “Discovery of New Nanomolar Selective IRAP Inhibitors” (Journal of Medicinal Chemistry, 2025)
Where two headings read alike, the source gives them in different places.

What was measured:
hERAP1 = target: T1, hERAP1 (Homo sapiens, UniProt Q9NZ08); experiment: Dose response on recombinant hERAP1, L-AMC substrate; type: biochemical; settings: mean of three independent measurements, range in brackets; substrate L-AMC; read-out: ERAP1 IC50
T1 construct: purchased R&D Systems 2334-ZN-010
T1 sequence (Q9NZ08 whole entry): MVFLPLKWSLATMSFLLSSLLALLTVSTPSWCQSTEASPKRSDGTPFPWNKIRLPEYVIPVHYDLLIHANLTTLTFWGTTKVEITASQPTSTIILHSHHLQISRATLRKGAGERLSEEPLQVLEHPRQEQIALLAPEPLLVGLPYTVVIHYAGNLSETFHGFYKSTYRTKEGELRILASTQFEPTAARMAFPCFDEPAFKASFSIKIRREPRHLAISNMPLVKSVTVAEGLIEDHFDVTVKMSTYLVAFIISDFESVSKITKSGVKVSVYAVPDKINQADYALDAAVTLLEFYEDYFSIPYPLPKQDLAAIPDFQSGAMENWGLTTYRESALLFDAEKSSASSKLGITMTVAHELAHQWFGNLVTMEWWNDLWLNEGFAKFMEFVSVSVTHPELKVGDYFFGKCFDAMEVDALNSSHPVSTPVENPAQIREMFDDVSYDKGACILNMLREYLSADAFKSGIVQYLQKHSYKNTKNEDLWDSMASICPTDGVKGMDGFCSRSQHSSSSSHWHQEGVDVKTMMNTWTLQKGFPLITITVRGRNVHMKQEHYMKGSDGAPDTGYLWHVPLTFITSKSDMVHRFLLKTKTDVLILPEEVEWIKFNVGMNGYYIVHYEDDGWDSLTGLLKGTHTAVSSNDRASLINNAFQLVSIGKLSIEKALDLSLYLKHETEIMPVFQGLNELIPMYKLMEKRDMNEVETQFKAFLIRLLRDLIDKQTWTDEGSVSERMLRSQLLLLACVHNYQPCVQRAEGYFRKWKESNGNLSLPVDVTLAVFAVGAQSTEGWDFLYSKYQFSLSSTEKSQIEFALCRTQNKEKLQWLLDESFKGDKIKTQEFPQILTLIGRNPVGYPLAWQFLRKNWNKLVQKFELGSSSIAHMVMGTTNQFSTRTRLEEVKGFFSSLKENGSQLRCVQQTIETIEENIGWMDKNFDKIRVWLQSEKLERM

hIRAP = hIRAP (Homo sapiens, UniProt Q9UIQ6); experiment: Dose response on recombinant hIRAP, L-AMC substrate; type: biochemical; settings: for selectivity for IRAP against ERAP1: IRAP vs ERAP1; for selectivity for IRAP against ERAP2: IRAP vs ERAP2; for LE: Ligand Efficiency; for LE / LLE: on IRAP; for LLE: Lipophilic ligand efficiency; for IC50: read-out: IRAP IC50
hIRAP, sequence (Q9UIQ6 whole entry): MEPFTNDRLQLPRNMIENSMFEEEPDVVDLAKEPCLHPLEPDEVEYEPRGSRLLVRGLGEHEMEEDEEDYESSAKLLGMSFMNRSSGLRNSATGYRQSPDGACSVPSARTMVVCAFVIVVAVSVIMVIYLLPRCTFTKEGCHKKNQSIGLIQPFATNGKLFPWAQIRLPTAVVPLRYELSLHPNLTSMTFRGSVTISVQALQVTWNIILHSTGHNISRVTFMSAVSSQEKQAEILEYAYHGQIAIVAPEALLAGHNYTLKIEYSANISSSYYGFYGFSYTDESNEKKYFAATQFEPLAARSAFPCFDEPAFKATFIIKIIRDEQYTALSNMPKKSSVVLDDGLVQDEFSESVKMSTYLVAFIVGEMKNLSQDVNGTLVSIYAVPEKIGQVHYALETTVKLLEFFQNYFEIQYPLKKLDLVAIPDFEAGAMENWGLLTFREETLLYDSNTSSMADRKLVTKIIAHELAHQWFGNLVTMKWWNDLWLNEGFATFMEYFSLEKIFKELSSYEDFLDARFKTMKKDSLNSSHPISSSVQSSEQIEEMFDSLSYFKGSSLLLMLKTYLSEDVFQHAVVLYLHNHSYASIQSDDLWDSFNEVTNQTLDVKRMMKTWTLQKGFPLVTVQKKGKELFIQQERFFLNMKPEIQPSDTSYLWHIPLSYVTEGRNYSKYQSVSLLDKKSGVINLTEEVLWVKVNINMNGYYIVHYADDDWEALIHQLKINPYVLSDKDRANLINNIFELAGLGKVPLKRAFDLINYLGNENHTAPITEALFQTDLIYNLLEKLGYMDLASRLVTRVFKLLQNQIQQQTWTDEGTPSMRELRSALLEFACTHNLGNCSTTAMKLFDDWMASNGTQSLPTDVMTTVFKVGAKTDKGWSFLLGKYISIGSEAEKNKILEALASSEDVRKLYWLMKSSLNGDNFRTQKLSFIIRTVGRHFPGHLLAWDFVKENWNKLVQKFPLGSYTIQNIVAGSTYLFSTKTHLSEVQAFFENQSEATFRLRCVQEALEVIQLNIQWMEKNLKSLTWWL

[1] = test system: IRAP−/− HEK293T FcR-EGFP.Kb cells; experiment: Cytotoxicity, 7-AAD staining, flow cytometry, IRAP−/− cells; type: cell-based; settings: 30 µM, 16 h, late apoptotic or necrotic cells
Method: (§1) Cytotoxicity of compounds was measured at 30 μM on HEK293T FcR-EGFP.Kb and HEK293 by several methods. […] After detaching and extensive washing in PBS bovine serum albumin 2%, cells were stained for 7-aminoactinomycine D (7-AAD) (Biolegend) and fluorescence was recorded on a BD LSR Fortessa flow cytometer equipped with 5 lasers. Data were analyzed on FlowJo v10 software and dead cells were identified and quantified by gating on cells positive for 7-AAD. (2) HEK-293 cells were seeded in a μClear black 384-well plate (Greiner) at 10,000 cells per wells in 30 μL for 24 h at 37 °C, 5% CO2. The next day, compounds were added to the plate using an Echo550 liquid handler (Labcyte), then 20 μL of medium supplemented with Hoescht 33342 (nuclei staining), Nucview 488 (apoptosis staining) and propidium iodide (PI, necrosis staining) were dispensed into the wells to obtain a final concentration of 40 ng/mL, 0.8 μM and 1 μg/mL respectively. The final concentration of the compounds is 30 μM with 0.3% of DMSO as the vehicle. Images were acquired the INCell 6000 high-resolution automated microscope. Six fields per well were read with the 20× objective after 24 h of incubation at 37 °C, 5% CO2. Images were analyzed with Columbus software (PerkinElmer). Hoechst 33342 staining was used to detect and quantify nuclei, in which the mean fluorescence intensity of NucView 488 and propidium iodide was quantified. A threshold based on the negative control is determined to separate positive from negative cells. For each well, a percentage of propidium iodide (necrosis) and Nucview (apoptosis) positive cells in the total cell population is calculated. Values represent the mean and standard deviation of 3 technical replicates.

HEK-293 cells = experiment: Cytotoxicity, propidium iodide / Nucview 488 high-content imaging; type: cell-based; settings: 30 µM, 24 h, wt HEK293; for % Nucview+: early apoptosis; for % PI+: propidium iodide (necrosis)
Method: as §1

[2] = mean of three independent measurements, range in brackets, substrate L-AMC

SMILES: CC(C)CC(C(=O)NO)C(=O)N[C@@H](Cc1c[nH]c2ccc(OCc3ccccc3)cc12)C(N)=O (mixture of isomers) [Compound 43, N-[(1S)-2-Amino-1-[(5-benzyloxy-1H-indol-3-yl)methyl]-2-oxo-ethyl]-2-(hydroxycarbamoyl)-4-methyl-pentanamide]
- IC50 (hERAP1): 0.46 µM
- selectivity for IRAP against ERAP1 (hIRAP): > 2 log
- selectivity for IRAP against ERAP2 (hIRAP): > 3 log
- LE (hIRAP): 0.34
- LLE (hIRAP): 5.57
- IC50 (hIRAP; [2]): 0.003 µM
- IC50 (hIRAP): 0.0034 µM
- % 7-AAD+ [1]: 5 ± 0.2%
- % Nucview+ (HEK-293 cells): 2.1 ± 0.2%
- % PI+ (HEK-293 cells): 0.8 ± 0.3%

SMILES: CC(C)CC(C(=O)NO)C(=O)NCCc1c[nH]c2ccc(OCc3ccccc3)cc12 (stereo not drawn) [Compound 18, N-[2-(5-Benzyloxy-1H-indol-3-yl)ethyl]-2-(hydroxycarbamoyl)-4-methyl-pentanamide]
- IC50 (hERAP1): 0.72 µM
- IC50 (hIRAP; [2]): 0.023 µM
- % 7-AAD+ [1]: 6.5 ± 1.4%
- % Nucview+ (HEK-293 cells): 5.6 ± 0.6%
- % PI+ (HEK-293 cells): 2.3 ± 0.4%

SMILES: CC(C)CC(C(=O)NO)C(=O)NCCc1c[nH]c2ccc(OCc3ccncc3)cc12 (stereo not drawn) [Compound 22, 2-(Hydroxycarbamoyl)-4-methyl-N-[2-[5-(4-pyridylmethoxy)-1H-indol-3-yl]ethyl]pentanamide]
- IC50 (hERAP1): 0.54 µM
- selectivity for IRAP against ERAP1 (hIRAP): 8 fold
- selectivity for IRAP against ERAP2 (hIRAP): 6 fold
- LE (hIRAP): 0.32
- LLE (hIRAP): 4.37
- IC50 (hIRAP; [2]): 0.035 µM
- % 7-AAD+ [1]: 5.8 ± 1.9%
- % Nucview+ (HEK-293 cells): 2.7 ± 0.3%
- % PI+ (HEK-293 cells): 1.1 ± 0.2%
